Consider one molecule from patent US20040087653A1, “Methods for the treatment of respiratory diseases and conditions with a selective iNOS inhibitor and a PDE inhibitor and compositions therefor” (priority 2002, published 2004).

Where a name gives a salt, the structure may show the parent alone. Bounds are passed on as bounds.

Data set [1] deals with T1, human endothelial constitutive NOS (hecNOS) (Homo sapiens, UniProt P29474).
T1 construct: made in house; host or cells: Sf9 insect cells, baculovirus vector
Put plainly: Citrulline assay for nitric oxide synthase, hecNOS. The following applies: averages across all experiments and all lots; 30 μM L-arginine. In kind it is biochemical. The source says:
Nitric oxide synthase (NOS) activity can be measured by monitoring the conversion of L-[2,3-^3H]-arginine to L-[2,3-^3H]-citrulline (Bredt and Snyder, Proc. Natl. Acad. Sci. U.S.A., 87, 682-685, 1990 and Moore et al, J. Med. Chem., 39, 669-672, 1996). Human inducible NOS (hiNOS), human endothelial constitutive_NOS (hecNOS) and human neuronal constitutive NOS (hncNOS) are each cloned from RNA extracted from human tissue. The cDNA for human inducible NOS (hiNOS) is isolated from a λcDNA library made from RNA extracted from a colon sample from a patient with ulcerative colitis. The cDNA for human endothelial constitutive NOS (hecNOS) is isolated from a λcDNA library made from RNA extracted from human umbilical vein endothelial cells (HUVEC) and the cDNA for human neuronal constitutive NOS (hncNOS) is isolated from a λcDNA library made from RNA extracted from human cerebellum obtained from a cadaver. The recombinant enzymes are expressed in Sf9 insect cells using a baculovirus vector (Rodi et al, in The Biology of Nitric Oxide, Pt. 4: Enzymology, Biochemistry and Immunology; Moncada, S., Feelisch, M., Busse, R., Higgs, E., Eds.; Portland Press Ltd.: London, 1995; pp 447-450). […] After mixing the resin is allowed to settle and L-[2,3-^3H]-Citrulline formation is determined by counting aliquots of the supernatant with a liquid scintillation counter. […]

The test system of data set [2] is exhaled breath nitric oxide (NO). Nature of the data set: Clinical study: exhaled breath NO after single oral dose. In kind it is in vivo, human. As for the experimental part:
(§1) A single center study was performed at the National Heart and Lung Institute (NHLI) Clinical Studies Unit in London, UK. The clinical protocol was submitted and accepted by the Ethics Committee of the Royal Brompton Hospital Trust, and the study was carried out according to Good Clinical Practice standards. Each subject provided written informed consent.
(§2) Twenty-four, adult, healthy volunteers and 24 patients with mild asthma participated in this study. All subjects were lifelong non-smokers. Asthma patients (n=24) had mild asthma according to American Thoracic Society Criteria, with medication on an as required basis with inhaled albuterol only. […] All asthmatic patients had baseline exhaled breath NO levels of >15 parts per billion (ppb). Healthy control (n=24) subjects were matched for age and sex, and had no clinically significant disease. Healthy subjects were required to have baseline exhaled NO levels between 4 and 9 ppb.
(§3) The study included 2 panels of healthy volunteers and asthmatic patients who received in a double-blind, randomized manner, a single dose of oral compound NN or placebo. The study was carried out in two phases according to the dose of compound NN under investigation. The first panel consisted of patients with mild-to-moderate asthma (n=12) and healthy subjects (n=12) who received single doses of 20 mg of compound NN and placebo, while the second panel of mild-to-moderate asthmatics (n=12) and healthy subjects (n=12) received single doses of 200 mg of compound NN and placebo. No patient or subject participated in both panels of this study. Evaluation of the first panel was completed before moving on to the second panel. The study evaluated the tolerability and pharmacokinetics of orally-administered compound NN and monitored levels of exhaled breath NO.
Measurement of exhaled NO: Exhaled NO was measured using a chemoluminescence analyzer (Logan 2000, Rochester, UK) and methods in accordance with International Guidelines. The analyser was calibrated daily using a certified NO mixture of 50 to 200 ppb (BOC Special gases, Guildford, UK) and ambient air NO recordings made on an hourly basis. Subjects were asked to refrain from strenuous exercise before any measurement. Each subject was seated for at least 5 minutes before any measurement was taken and remained seated throughout the procedure. […] Two successive recordings were taken, and the average value was calculated.
Statistical methods for clinical data: Exhaled NO data, including change from baseline and the percentage change, were tested for normality using the Shapiro-Wilks test. […] The area under the curve (AUC) for the change from baseline and the percentage change, and the differences between active and placebo were calculated. […]

Data set [3] is described as follows: Clinical study: tolerability, FEV1, blood pressure, heart rate, laboratory parameters. In kind it is in vivo, human. The following applies: single oral dose. As to the method:
as §1, §2, §3
Forced expiratory volume in 1 sec (FEV1) and heart rate data had no significant deviations from normality using the Shapiro-Wilks test, therefore parametric statistical methods were used, and the significance of the change from baseline was tested using a paired […]. […]

The next data set addresses i-NOS (Homo sapiens, UniProt P35228). Put plainly: i-NOS inhibition, comparison with NIL amides.
Setting [4] is: healthy volunteers and asthmatics.

Chain of i-NOS (P35228 whole entry): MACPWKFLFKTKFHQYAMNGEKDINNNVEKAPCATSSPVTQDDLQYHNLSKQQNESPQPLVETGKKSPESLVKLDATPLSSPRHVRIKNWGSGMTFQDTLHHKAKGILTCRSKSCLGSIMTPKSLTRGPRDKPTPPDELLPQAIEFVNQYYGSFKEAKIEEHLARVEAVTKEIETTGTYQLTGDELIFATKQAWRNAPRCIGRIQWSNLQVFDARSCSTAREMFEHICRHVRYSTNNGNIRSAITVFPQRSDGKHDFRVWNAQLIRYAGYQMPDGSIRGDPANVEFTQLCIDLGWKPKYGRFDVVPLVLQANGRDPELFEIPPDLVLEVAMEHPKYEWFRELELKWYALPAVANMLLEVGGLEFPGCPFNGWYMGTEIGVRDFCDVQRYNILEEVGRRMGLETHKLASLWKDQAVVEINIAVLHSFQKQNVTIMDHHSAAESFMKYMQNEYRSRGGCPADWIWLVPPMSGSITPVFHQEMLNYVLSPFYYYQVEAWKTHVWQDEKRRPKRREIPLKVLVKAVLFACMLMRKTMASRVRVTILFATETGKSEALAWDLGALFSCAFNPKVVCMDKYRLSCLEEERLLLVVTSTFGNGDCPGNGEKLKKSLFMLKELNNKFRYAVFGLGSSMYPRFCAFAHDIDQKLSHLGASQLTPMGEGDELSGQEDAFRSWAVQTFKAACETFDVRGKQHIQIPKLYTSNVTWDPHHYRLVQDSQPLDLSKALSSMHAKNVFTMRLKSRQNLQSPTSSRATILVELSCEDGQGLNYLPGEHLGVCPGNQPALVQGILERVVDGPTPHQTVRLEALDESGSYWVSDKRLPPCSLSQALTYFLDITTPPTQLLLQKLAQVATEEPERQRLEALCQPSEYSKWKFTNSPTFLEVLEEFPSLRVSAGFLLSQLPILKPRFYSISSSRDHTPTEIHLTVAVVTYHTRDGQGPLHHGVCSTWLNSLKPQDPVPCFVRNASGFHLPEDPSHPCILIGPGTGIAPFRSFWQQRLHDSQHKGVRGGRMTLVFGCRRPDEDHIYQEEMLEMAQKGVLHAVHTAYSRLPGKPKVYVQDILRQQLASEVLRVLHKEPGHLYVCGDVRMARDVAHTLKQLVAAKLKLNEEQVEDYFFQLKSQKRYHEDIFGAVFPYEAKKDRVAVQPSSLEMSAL

Usually IC50 stands for the concentration at which inhibition is half-maximal. Low readings indicate inhibition by little substance, high ones a need for much substance. On to `CC(=N)NCCCC[C@H](N)C(=O)Nc1nnn[nH]1` [Example NN, 2S-amino-6-[(1-iminoethyl)amino]-N-(1H-tetrazol-5-yl)hexanamide, hydrate, dihydrochloride], for which the IC50 in data set [1] turned out to be 2.42 mM. Moreover, in data set [2] (200 mg single oral dose), the “inhibition of exhaled NO in asthma” value is listed as 95%. In addition, in data set [2] (setting [4]), the “residual exhaled NO” value is recorded as under 1 ppb. In addition, the “change in exhaled NO” value in data set [2] (single oral dose 20 mg or 200 mg, healthy volunteers and asthmatics, 72 hour assessment) is “rapid reduction in exhaled NO”. The “duration of the decrease in exhaled breath NO” value in data set [2] (single oral dose, healthy volunteers and asthmatics) was found to be 3 days. In data set [3], the “effect on haematology or blood biochemistry” value was “no effect”; the “effects on heart rate, blood pressure and FEV1” value is given as “no apparent effects”. Besides, the tolerability result in data set [3] (setting [4]) was “well tolerated”. On i-NOS, the “i-NOS inhibitory potency compared with NIL amide or NIL dimethylamide” value was “more potent i-NOS inhibitor”.
